# Laboratory results from US20260265246A1 (ICAHN SCHOOL OF MEDICINE AT MOUNT SINAI, priority 2021, published 2026).
# Like-named read-outs stand apart in the source and are kept apart here.
# Tests used:
# 5HT2A receptor [1] = target: T1, 5HT2A receptor (Homo sapiens, UniProt P28223); experiment: cell-based; design: expressed in transfected cells; host or cells: HEK293T cells, transient co-transfection; conditions: for Emax: HEK-293T
# 5HT2A receptor [2] = target: T1, 5HT2A receptor; experiment: cell-based; design: expressed in transfected cells; host or cells: HEK293T cells, transient co-transfection; conditions: for Emax: HEK-293T; remark: listed apart in the source
# 5HT2A receptor [3] = target: T1, 5HT2A receptor; experiment: biochemical; assay type: binding; design: expressed in transfected cells; crude membranes
# [4] = 5HT2A β-Arr EC50 (nM), BRET1 beta-arrestin2 recruitment, HEK293T cells
# [5] = BRET1 beta-arrestin2 recruitment, HEK293T cells, normalized to 5-HT, read-out: 5HT2A β-Arr Emax (%)
# [6] = BRET2 Gαq dissociation, HEK293T cells, read-out: 5HT2A Gq EC50
# [7] = BRET2 Gαq dissociation, HEK293T cells, normalized to 5-HT, read-out: 5HT2A Gq Emax (%)
# [8] = 5HT2A Ki (nM), secondary radioligand binding, Ki from IC50 by Cheng-Prusoff
# [9] = 5HT2A Gq EC50 (nM), BRET2 Gαq dissociation, HEK293T cells
# [10] = BRET1 beta-arrestin2 recruitment, HEK293T cells, read-out: 5HT2A β-Arr EC50
# [11] = secondary radioligand binding, Ki from IC50 by Cheng-Prusoff, read-out: 5HT2A Ki
# [12] = 5HT2A β-Arr EC50 (nM), BRET1 beta-arrestin2 recruitment, HEK293T
# [13] = BRET1 beta-arrestin2 recruitment, HEK293T, normalized to 5-HT, read-out: 5HT2A β-Arr Emax (%)
# [14] = 5HTA Gq EC50 (nM), BRET2 Gαq dissociation, HEK293T
# [15] = BRET2 Gαq dissociation, HEK293T, normalized to 5-HT, read-out: 5HTA Gq Emax (%)
# [16] = 5HT2A Ki (nM), secondary binding assay, Cheng-Prusoff
# [17] = BRET2 Gαq dissociation, HEK293T, read-out: 5HTA Gq EC50
# [18] = read-out: 5HT2A β-Arr Emax (%), BRET1 beta-arrestin2 recruitment, HEK293T, normalized to 5-HT
# [19] = read-out: 5HTA Gq Emax (%), BRET2 Gαq dissociation, HEK293T, normalized to 5-HT
# T1 sequence (P28223 whole entry): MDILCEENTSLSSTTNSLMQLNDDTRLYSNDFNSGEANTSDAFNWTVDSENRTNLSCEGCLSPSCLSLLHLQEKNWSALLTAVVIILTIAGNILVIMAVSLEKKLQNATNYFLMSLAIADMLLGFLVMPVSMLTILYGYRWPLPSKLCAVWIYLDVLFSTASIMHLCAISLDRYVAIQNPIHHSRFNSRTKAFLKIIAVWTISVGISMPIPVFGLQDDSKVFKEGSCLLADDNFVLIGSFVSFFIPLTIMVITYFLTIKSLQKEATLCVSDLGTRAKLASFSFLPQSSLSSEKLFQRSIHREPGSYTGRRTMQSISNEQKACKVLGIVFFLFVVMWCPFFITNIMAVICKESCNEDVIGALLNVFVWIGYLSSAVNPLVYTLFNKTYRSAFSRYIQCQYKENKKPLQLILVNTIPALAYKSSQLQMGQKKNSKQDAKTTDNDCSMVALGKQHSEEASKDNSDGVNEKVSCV
Structure (SMILES),EC50 (5HT2A receptor [1]; [4]) [nM],Emax (5HT2A receptor [1]; [5]) [%],EC50 (5HT2A receptor [2]; [6]) [nM],Emax (5HT2A receptor [2]; [7]) [%],Ki (5HT2A receptor [3]; [8]) [nM],EC50 (5HT2A receptor [1]; [12]) [nM],Emax (5HT2A receptor [1]; [13]) [%],Emax (5HT2A receptor [2]; [15]) [%],Ki (5HT2A receptor [3]; [16]) [nM],other results
"C=CCN1CCC=C(c2n[nH]c3c(Cl)cccc23)C1 [Example 124, 3-(1-allyl-1,2,5,6-tetrahydropyridin-3-yl)-7-chloro-1H-indazole]",1010,35.3,49.6,64.9,159,–,–,–,–,–
"CN1CCC=C(c2c[nH]c3ncc(F)cc23)C1 [Example 118, 5-fluoro-3-(1-methyl-1,2,5,6-tetrahydropyridin-3-yl)-1H-pyrrolo[2,3-b]pyridine]",49.4,56.7,–,109,80.3,–,–,–,–,EC50 (5HT2A receptor [2]; [9]): 31.6 nM
"CN1CCC=C(c2n[nH]c3ccc(Cl)cc23)C1 [Example 101, 5-chloro-3-(1-methyl-1,2,5,6-tetrahydropyridin-3-yl)-1H-indazole]",292,80.7,16.2,74.2,141,–,–,–,–,–
"Clc1ccc2[nH]cc(C3=CCCNC3)c2c1 [Example 22, 5-chloro-3-(1,2,5,6-tetrahydropyridin-3-yl)-1H-indole]",–,77.3,7.2,102,–,–,–,–,–,EC50 (5HT2A receptor [1]; [10]): 78.4 nM; Ki (5HT2A receptor [3]; [11]): 44.3 nM
"Clc1cccc2c(C3=CCCN(Cc4ccccc4)C3)c[nH]c12 [Example 67, 3-(1-benzyl-1,2,5,6-tetrahydropyridin-3-yl)-7-chloro-1H-indole]",756,46.6,–,48.8,90.2,–,–,–,–,EC50 (5HT2A receptor [2]; [9]): 44.1 nM
"Fc1cc(Cl)c2[nH]nc(N3CCNCC3)c2c1 [Example 232, 7-chloro-5-fluoro-3-(piperazin-1-yl)-1H-indazole]",–,–,–,–,–,1970,29,48.4,1540,EC50 (5HT2A receptor [2]; [14]): 170 nM
"C=CCc1cccc2c(C3=CCCN(C)C3)c[nH]c12 [Example 257, 7-allyl-3-(1-methyl-1,2,5,6-tetrahydropyridin-3-yl)-1H-indole]",–,–,–,–,–,105,52.1,90.7,–,"EC50 (5HT2A receptor [2]; [17]): 44.9 nM; Ki (5HT2A receptor [3]; secondary binding assay, Cheng-Prusoff, read-out: 5HT2A Ki): 97 nM"
"Clc1ccc2c(C3=CCCNC3)n[nH]c2c1 [Example 77, 6-chloro-3-(1,2,5,6-tetrahydropyridin-3-yl)-1H-indazole]",430,76.7,38.9,93.9,439,–,–,–,–,–
"C#CCN1CCC=C(c2n[nH]c3c(Cl)cccc23)C1 [Example 125, 7-chloro-3-(1-(prop-2-yn-1-yl)-1,2,5,6-tetrahydropyridin-3-yl)-1H-indazole]",291,63.3,75,93.5,1970,–,–,–,–,–
"COc1cnc2[nH]cc(C3=CCCN(C)C3)c2c1 [Example 6, 5-methoxy-3-(1-methyl-1,2,5,6-tetrahydropyridin-3-yl)-1H-pyrrolo[2,3-b]pyridine]",792,33.4,–,65.9,695,–,–,–,–,EC50 (5HT2A receptor [2]; [9]): 44.1 nM
"COc1cccc2[nH]nc(C3=CCCNC3)c12 [Example 83, 4-methoxy-3-(1,2,5,6-tetrahydropyridin-3-yl)-1H-indazole]",–,75.9,12.5,81.7,–,–,–,–,–,EC50 (5HT2A receptor [1]; [10]): 109 nM; Ki (5HT2A receptor [3]; [11]): 78.8 nM
"COc1cccc2[nH]cc(C3=CCCNC3)c12 [Example 18, 4-methoxy-3-(1,2,5,6-tetrahydropyridin-3-yl)-1H-indole]",–,51.8,3.9,96.1,–,–,–,–,–,EC50 (5HT2A receptor [1]; [10]): 71.2 nM; Ki (5HT2A receptor [3]; [11]): 50.5 nM
"CCCN1CCC=C(c2c[nH]c3c(C)cccc23)C1 [Example 155, 7-methyl-3-(1-propyl-1,2,5,6-tetrahydropyridin-3-yl)-1H-indole]",–,–,–,–,–,532,34.4,68.5,539,EC50 (5HT2A receptor [2]; [17]): 29.5 nM
"COc1cccc2[nH]nc(C3=CCCN(C)C3)c12 [Example 100, 4-methoxy-3-(1-methyl-1,2,5,6-tetrahydropyridin-3-yl)-1H-indazole]",460,52.4,91.6,63.9,349,–,–,–,–,–
"Fc1ccc2c(C3=CCCNC3)n[nH]c2c1 [Example 78, 6-fluoro-3-(1,2,5,6-tetrahydropyridin-3-yl)-1H-indazole]",–,59.4,11.5,79.4,–,–,–,–,–,EC50 (5HT2A receptor [1]; [10]): 115 nM; Ki (5HT2A receptor [3]; [11]): 57.6 nM
"Fc1cccc2c(C34CNCC3C4)n[nH]c12 (stereo not shown) [Example 187, 3-(3-azabicyclo[3.1.0]hexan-1-yl)-7-fluoro-1H-indazole]",–,–,–,–,–,648,35,71.6,699,EC50 (5HT2A receptor [2]; [14]): 136 nM
"CCN1CCC=C(c2nn(CC)c3c(Cl)cccc23)C1 [Example 146, 7-chloro-1-ethyl-3-(1-ethyl-1,2,5,6-tetrahydropyridin-3-yl)-1H-indazole]",–,–,–,–,–,1530,56.7,54.5,171,EC50 (5HT2A receptor [2]; [14]): 51.7 nM
"CC(C)c1ccc2[nH]cc(C3=CCCNC3)c2c1 [Example 23, 5-isopropyl-3-(1,2,5,6-tetrahydropyridin-3-yl)-1H-indole]",–,31.4,65.7,58.8,–,–,–,–,–,EC50 (5HT2A receptor [1]; [10]): 735 nM; Ki (5HT2A receptor [3]; [11]): 98.6 nM
"CN1CCC=C(c2c[nH]c3nc(F)ccc23)C1 [Example 134, 6-fluoro-3-(1-methyl-1,2,5,6-tetrahydropyridin-3-yl)-1H-pyrrolo[2,3-b]pyridine]",–,–,–,–,–,1050,51.1,87.4,284,EC50 (5HT2A receptor [2]; [14]): 140 nM
"FC(F)CN1CCC=C(c2n[nH]c3c(Cl)cccc23)C1 [Example 153, 7-chloro-3-(1-(2,2-difluoroethyl)-1,2,5,6-tetrahydropyridin-3-yl)-1H-indazole]",–,–,–,–,–,1200,77.4,83.9,634,EC50 (5HT2A receptor [2]; [14]): 1240 nM
"CN1CCC=C(c2c[nH]c3ncc(Cl)cc23)C1 [Example 7, 5-chloro-3-(1-methyl-1,2,5,6-tetrahydropyridin-3-yl)-1H-pyrrolo[2,3-b]pyridine]",18.7,20.7,–,73.4,209,–,–,–,–,EC50 (5HT2A receptor [2]; [9]): 56.9 nM
"Clc1ccnc2[nH]cc(C3=CCCNC3)c12 [Example 11, 4-chloro-3-(1,2,5,6-tetrahydropyridin-3-yl)-1H-pyrrolo[2,3-b]pyridine]",904,43.7,–,84.7,273,–,–,–,–,EC50 (5HT2A receptor [2]; [9]): 79.9 nM
"COc1cnc2[nH]cc(C3=CCCNC3)c2c1 [Example 2, 5-methoxy-3-(1,2,5,6-tetrahydropyridin-3-yl)-1H-pyrrolo[2,3-b]pyridine]",1040,61.6,–,73.7,294,–,–,–,–,EC50 (5HT2A receptor [2]; [9]): 135 nM
"FCCCN1CCC=C(c2n[nH]c3c(Cl)cccc23)C1 [Example 165, 7-chloro-3-(1-(3-fluoropropyl)-1,2,5,6-tetrahydropyridin-3-yl)-1H-indazole]",–,–,–,–,–,157,28.7,65,342,EC50 (5HT2A receptor [2]; [17]): 85.8 nM
"Cc1c(F)ccc2c(C34CNCC3C4)c[nH]c12 (stereo not shown) [Example 283, 3-(3-azabicyclo[3.1.0]hexan-1-yl)-6-fluoro-7-methyl-1H-indole]",–,–,–,–,–,797,–,–,141,Emax (5HT2A receptor [1]; [18]): 41.5%; EC50 (5HT2A receptor [2]; [14]): 88.2 nM; Emax (5HT2A receptor [2]; [19]): 104%
"Fc1cc(Cl)c2[nH]cc(C34CNCC3C4)c2c1 (stereo not shown) [Example 279, 3-(3-azabicyclo[3.1.0]hexan-1-yl)-7-chloro-5-fluoro-1H-indole]",–,–,–,–,–,380,–,–,75.2,Emax (5HT2A receptor [1]; [18]): 60.9%; EC50 (5HT2A receptor [2]; [14]): 110 nM; Emax (5HT2A receptor [2]; [19]): 98.6%
"CCCc1cccc2c(C3=CCCN(CC)C3)c[nH]c12 [Example 245, 3-(1-ethyl-1,2,5,6-tetrahydropyridin-3-yl)-7-propyl-1H-indole]",–,–,–,–,–,1300,–,–,600,Emax (5HT2A receptor [1]; [18]): 44.8%; EC50 (5HT2A receptor [2]; [14]): 392 nM; Emax (5HT2A receptor [2]; [19]): 87.5%
"Cc1c(F)ccc2c(C3=CCCN(C)C3)c[nH]c12 [Example 127, 6-fluoro-7-methyl-3-(1-methyl-1,2,5,6-tetrahydropyridin-3-yl)-1H-indole]",–,–,–,–,–,–,48.9,90.2,121,"EC50 (5HT2A receptor [1]; BRET1 beta-arrestin2 recruitment, HEK293T, read-out: 5HT2A β-Arr EC50): 62.9 nM; EC50 (5HT2A receptor [2]; [17]): 26.6 nM"
"Cc1ccnc2[nH]cc(C3=CCCN(C)C3)c12 [Example 13, 4-methyl-3-(1-methyl-1,2,5,6-tetrahydropyridin-3-yl)-1H-pyrrolo[2,3-b]pyridine]",–,38.9,106,68.7,–,–,–,–,–,EC50 (5HT2A receptor [1]; [10]): 765 nM; Ki (5HT2A receptor [3]; [11]): 63.5 nM
